According to patent publication US11708357B2, “Crystal form of pyrrolidinyl urea derivative and application thereof” (ZHANGZHOU PIEN TZE HUANG PHARMACEUTICAL CO., LTD., priority 2020, dated 2023):

Tests used:
[1] = Plasma protein binding rate (PPB) test, human plasma; type: in vitro ADME; conditions: 2 μM, dialysis 37° C. 4 hours
Description: The protein binding rates of the test compound in the plasma of humans and SD rats were determined.
796 μL of blank plasma from humans and SD rats (plasma purchased from BioreclamationIVT) were taken, 4 μL of working solution of the test compound (400 μM) or warfarin working solution (400 μM) was added and the final concentration of the test compound or warfarin was 2 μM. The sample was mixed thoroughly. […] All samples were analyzed by LC/MS/MS after protein precipitation, and the plasma protein unbound rate, binding rate and recovery rate was calculated according to the following formula: % unbound rate=100*free compound concentration at the membrane buffer side/total compound concentration at the membrane plasma side, % protein binding rate=100−% unbound rate, % recovery rate=100*(free compound concentration at the membrane buffer side+total compound concentration at the membrane plasma side)/total compound concentration before dialysis.

[2] = In vivo pharmacokinetic study in rats after single administration; conditions: male, Sprague Dawley, rat, plasma, 2 mg/kg, 2 mpk intravenous injection
Description: Male SD rats were used as test animals, and the concentration of the compound in blood was determined after single administration to evaluate the pharmacokinetic behavior.
Sprague Dawley rats (male, 200-300 g, 7-9 weeks, Shanghai Charles River Laboratory Animal Co., Ltd.)
The pharmacokinetic characteristics of the test compound in rodents after intravenous injection and oral administration were tested by standard protocols, in the experiment, the test compound was prepared into a clear solution or homogeneous suspension, and administered to the rats by single intravenous injection and oral administration. In the intravenous injection group, the menstruum was a certain proportion of ethanol and physiological saline solution or a certain proportion of dimethyl sulfoxide in HP-β cyclodextrin solution (the pH was adjusted to 3-4), the mixture was vortexed and stirred to prepare 1 mg/mL clear solution, then filtered with microporous membrane for later use; in the oral administration group, the menstruum was a certain proportion of sodium carboxymethyl cellulose solution or a certain proportion of dimethyl sulfoxide in HP-β cyclodextrin solution (the pH was adjusted to about 4), after the test compound was mixed with the solvent, the mixture was vortexed and stirred to prepare 30 mg/mL homogeneous suspension for later use. After 2 mg/kg intravenous administration or 300 mg/kg oral administration to rats, a certain amount of whole blood samples were collected, centrifuged at 3000 g for 15 minutes, the supernatant was separated to obtain the plasma samples; then an acetonitrile solution containing internal standard with a volume 3 times that of the plasma sample was added to precipitate proteins, and then centrifuged; the supernatant was separated, and water with a volume twice that of the supernatant was added to the supernatant, which was then centrifuged again; the supernatant was collected for analysis; LC-MS/MS analysis method was used to quantitatively analyze the blood drug concentration, and Phoenix WinNonlin software (Pharsight, USA) was used to calculate the pharmacokinetic parameters, such as peak concentration, time to peak concentration, clearance rate, half-life, area under the concentration-time curve, bioavailability, etc.
(§1) Among them, C0 is the initial concentration, T1/2 is the elimination half-life, Vdss is the steady-state apparent volume of distribution, Cl is the total clearance rate, AUC0-inf is the area under the plasma drug concentration-time curve from time 0 to infinity, Cmax is the peak concentration, Tmax is the time to peak concentration.

[3] = In vivo pharmacokinetic study in mice after single administration; parameters: species or system CD-1 mice; conditions: male, CD-1, mouse, plasma
Description: Male CD-1 mice were used as test animals, the concentration of the compound in blood was determined after single administration to evaluate the pharmacokinetic behavior.
CD-1 mice (male, 20-40 g, 6-9 weeks, Shanghai Sippr-Bk Laboratory Animal Co., Ltd.)
The pharmacokinetic characteristics of the test compound in rodents after intravenous injection and oral administration were tested by standard protocols, in the experiment, the test compound was prepared into a clear solution or homogeneous suspension, and administered to the mice by single intravenous injection and oral administration. In the intravenous injection group, the menstruum was a certain proportion of ethanol, Cremophor EL and physiological saline solution, the mixture was vortexed to prepare 1 mg/mL clear solution, then filtered with microporous membrane for later use; in the oral administration group, the menstruum was a certain proportion of methyl cellulose solution or certain proportion of methyl cellulose and Tween 80 aqueous solution, the test compound was mixed with the menstruum, and the mixture was vortexed to prepare 10 mg/mL clear or homogeneous suspension for later use. After 2 mg/kg intravenous administration or 100 mg/kg oral administration to the mice, a certain amount of whole blood samples were collected, centrifuged at 3200 g for 10 minutes, the supernatant was separated to obtain the plasma samples, and the samples were diluted multiple times with blank plasma according to actual needs. The plasma sample was added to acetonitrile solution containing the internal standard with a volume 20 times that of the plasma sample to precipitate proteins, and then centrifuged; the supernatant was separated, and water with a volume twice that of the supernatant was added to the supernatant, which was then centrifuged again; the supernatant was collected for analysis; LC-MS/MS analysis method was used to quantitatively analyze the blood drug concentration, and Phoenix WinNonlin software (Pharsight, USA) was used to calculate the pharmacokinetic parameters, such as peak concentration, time to peak concentration, clearance rate, half-life, area under the concentration-time curve, bioavailability, etc.
as §1

[4] = 2 mg/kg, 2 mpk intravenous injection
[5] = 100 mg/kg, 100 mpk oral administration

Plasma protein unbound rate, Human plasma [1]: 13.2%
AUC(0-inf) [2]: 2.61 µM·h
C0 [2]: 5.38 µM
clearance [2]: 22.4 mL/min/kg
half-life [2]: 33 min
Vd ([2]; read-out: Vdss): 0.81 L/kg
AUC(0-inf) [3, 4]: 1.44 µM·h
C0 [3, 4]: 2.72 µM
clearance [3, 4]: 41.7 mL/min/kg
half-life [3, 4]: 34.2 min
Vd ([3]; 2 mg/kg, 2 mpk intravenous injection, read-out: Vdss): 1.54 L/kg
AUC(0-inf) [3, 5]: 37.6 µM·h
Cmax [3, 5]: 25.6 µM
Tmax [3, 5]: 22.8 min
bioavailability [3, 5]: 52.2%
half-life [3, 5]: 55.2 min
SMILES: COCCN1C[C@@H](n2ccc(F)c2)[C@H](NC(=O)Nc2c(C)c(-c3cnc(C4(F)COC4)nc3)nn2-c2ccccc2)C1 [Compound of formula (I)]
